Reference: patent US20250382279A1, “COMPOUNDS AND METHODS FOR YAP/TEAD MODULATION AND INDICATIONS THEREFOR” (OPNA BIO SA, priority 2023, published 2025)

These molecules were tested on TEAD-dependent transcription (assay: Inhibitor activity against TEAD-dependent transcription in a cell-based reporter assay (MSTO-211H+12XGTIIC luciferase)). Conditions: Homo sapiens; MSTO-211H+12XGTIIC cell line, 24 hours compound incubation, luminescence normalized to cell viability fluorescence; read-out: MSTO-211H GMean IC50 (uM) Cell Assay Reporter Cell Variant: TEAD.
Text: Determine Inhibitor Activity Against TEAD-Dependent Transcription in a Cell-Based Reporter Assay
The human mesothelioma cell line MSTO-211H was stably transfected with a pGL4.21 plasmid containing a synthetic promoter with 12 copies of the GTIIC TEAD response element that drives the expression of a luciferase reporter gene^1 using Lipofectamine transfection reagent (Thermno Fisher). Transfected cells were selected using puromycin and single cell clones expressing this construct (referred to as MSTO-211H+12XGTIIC) were generated by limiting dilution. MSTO-211H cells was characterized by genetic alterations in key components of the Hippo pathway^2, resulting in up-regulation of YAP/TEAD-mediated transcription. […] To evaluate TEAD inhibitors, the MSTO-211H+12XGTIIC cell line was seeded in a 96-well plate in 50 μL of culture media at 1×10^4 cells per well and incubated at 37° C. overnight. Serial dilutions of compounds (in total volume of 50 μL of culture media) were added to the cells and incubated at 37° C. for 24 hours. Each plate included cells treated with DMSO as high controls and cells treated with 20 μM of the reference compound K-975 (a known TEAD inhibitor)^3 as low controls. Cell viability was assayed by the addition of 25 μL of CellTiter-Fluor reagent (Promega) followed by a 30-minute incubation at 37° C. and quantification of the fluorescence signal (Ex400/Em505). Subsequently, luciferase expression was assayed by the addition of 25 μL of ONE-Glo reagent (Promega) followed by a 10-minute incubation at room temperature and quantification of the luminescence signal. The luminescence signal was normalized to the fluorescence signal to correct for any loss in cell viability over the 24-hour compound incubation period. The percentage of inhibition of normalized luminescence signal, indicative of compound-mediated inhibition of TEAD-dependent transcription, at individual compound concentrations relative to high and low controls was calculated. The data were analyzed by using nonlinear regression to generate IC50 values for individual compounds.

| SMILES | IC50 |
| --- | --- |
| CS(=O)(=O)c1cccc(N2CCc3c(Oc4ccc(C(F)(F)F)cc4)cccc3C2=O)c1 [O-0001, 2-(3-(methylsulfonyl)phenyl)-5-(4-(trifluoromethyl)phenoxy)-3,4-dihydroisoquinolin-1(2H)-one] | 0.001 to 10 µM |
| CS(=O)(=O)c1ccc(N2CCc3c(Oc4ccc(C(F)(F)F)cc4)cccc3C2=O)cc1 [O-0002, 2-(4-(methylsulfonyl)phenyl)-5-(4-(trifluoromethyl)phenoxy)-3,4-dihydroisoquinolin-1(2H)-one] | 0.001 to 10 µM |
| O=C1c2cccc(Oc3ccc(C(F)(F)F)cc3)c2CCN1c1cccc(C(F)(F)F)c1 [O-0003, 5-(4-(trifluoromethyl)phenoxy)-2-(3-(trifluoromethyl)phenyl)-3,4-dihydroisoquinolin-1(2H)-one] | 0.001 to 10 µM |
| O=C1c2cccc(Oc3ccc(C(F)(F)F)cc3)c2CCN1c1ccc(S(=O)(=O)C(F)(F)F)cc1 [O-0004, 5-(4-(trifluoromethyl)phenoxy)-2-(4-((trifluoromethyl)sulfonyl)phenyl)-3,4-dihydroisoquinolin-1(2H)-one] | 0.001 to 10 µM |
| O=C1c2cccc(Oc3ccc(C(F)(F)F)cc3)c2CCN1c1cccc(S(=O)(=O)C(F)(F)F)c1 [O-0005, 5-(4-(trifluoromethyl)phenoxy)-2-(3-((trifluoromethyl)sulfonyl)phenyl)-3,4-dihydroisoquinolin-1(2H)-one] | 0.001 to 10 µM |
| CS(=O)(=O)C1CC(N2CCc3c(Oc4ccc(C(F)(F)F)cc4)cccc3C2=O)C1 (stereo not drawn) [O-0006, 2-(3-(methylsulfonyl)cyclobutyl)-5-(4-(trifluoromethyl)phenoxy)-3,4-dihydroisoquinolin-1(2H)-one] | 0.001 to 10 µM |
| CS(=O)(=O)c1nccc(N2CCc3c(Oc4ccc(C(F)(F)F)cc4)cccc3C2=O)n1 [O-0007, 2-(2-(methylsulfonyl)pyrimidin-4-yl)-5-(4-(trifluoromethyl)phenoxy)-3,4-dihydroisoquinolin-1(2H)-one] | 0.001 to 10 µM |
| Nc1ccc(N2CCc3c(Oc4ccc(C(F)(F)F)cc4)cccc3C2=O)cc1 [O-0010, 2-(4-aminophenyl)-5-(4-(trifluoromethyl)phenoxy)-3,4-dihydroisoquinolin-1(2H)-one] | 0.001 to 10 µM |
| Nc1cccc(N2CCc3c(Oc4ccc(C(F)(F)F)cc4)cccc3C2=O)c1 [O-0011, 2-(3-aminophenyl)-5-(4-(trifluoromethyl)phenoxy)-3,4-dihydroisoquinolin-1(2H)-one] | 0.001 to 10 µM |
| C=CC(=O)Nc1cccc(N2CCc3c(Oc4ccc(C(F)(F)F)cc4)cccc3C2=O)c1 [O-0012, N-(3-(1-oxo-5-(4-(trifluoromethyl)phenoxy)-3,4-dihydroisoquinolin-2(1H)-yl)phenyl)acrylamide] | 0.001 to 10 µM |
| C=CC(=O)Nc1ccc(N2CCc3c(Oc4ccc(C(F)(F)F)cc4)cccc3C2=O)cc1 [O-0013, N-(4-(1-oxo-5-(4-(trifluoromethyl)phenoxy)-3,4-dihydroisoquinolin-2(1H)-yl)phenyl)acrylamide] | 0.001 to 10 µM |
| O=C1c2cccc(Oc3ccc(C(F)(F)F)cc3)c2CCN1c1ccc2nc(C(F)(F)F)sc2c1 [O-0014, 2-(2-(trifluoromethyl)benzo[d]thiazol-6-yl)-5-(4-(trifluoromethyl)phenoxy)-3,4-dihydroisoquinolin-1(2H)-one] | 0.001 to 10 µM |
| O=C1c2cccc(Oc3ccc(C(F)(F)F)cc3)c2CCN1c1ccc2nc(C(F)(F)F)[nH]c2c1 [O-0016, 2-(2-(trifluoromethyl)-1H-benzo[d]imidazol-6-yl)-5-(4-(trifluoromethyl)phenoxy)-3,4-dihydroisoquinolin-1(2H)-one] | 0.001 to 10 µM |
| N#Cc1nc2ccc(N3CCc4c(Oc5ccc(C(F)(F)F)cc5)cccc4C3=O)cc2o1 [O-0017, 6-(1-oxo-5-(4-(trifluoromethyl)phenoxy)-3,4-dihydroisoquinolin-2(1H)-yl)benzo[d]oxazole-2-carbonitrile] | 0.001 to 10 µM |
| CS(=O)(=O)N1CCC(N2CCc3c(Oc4ccc(C(F)(F)F)cc4)cccc3C2=O)CC1 [O-0018, 2-(1-(methylsulfonyl)piperidin-4-yl)-5-(4-(trifluoromethyl)phenoxy)-3,4-dihydroisoquinolin-1(2H)-one] | 0.001 to 10 µM |
